Measurements published in patent US20220274947A1, “NOVEL HETEROARYL-TRIAZOLE COMPOUNDS AS PESTICIDES” (Bayer Aktiengesellschaft, priority 2019, published 2022).

Tests used:
Nilaparvata lugens = Nilaparvata lugens spray test; format: in vivo; settings: 96 h, rice plants, after 4 days; for mortality at 500 g/ha: application rate 500 g/ha; for mortality at 100 g/ha: application rate 100 g/ha
Procedure: Nilaparvata lugens—Spray Test Solvent: 78.0 parts by weight of acetone • • 1.5 parts by weight of dimethylformamide Emulsifier: alkylarylpolyglycol ether
(§1) To produce a suitable preparation of active compound, 1 part by weight of active compound is mixed with the stated amount of solvents and is diluted with water, containing an emulsifier concentration of 1000 ppm, to the desired concentration. Further test concentrations are prepared by dilution with emulsifier containing water.
Rice plants (Oryza sativa) are sprayed with a preparation of the active ingredient of the desired concentration and the plants are infested with the brown planthopper (Nilaparvata lugens).
After 4 days mortality in % is determined. 100% means all planthoppers have been killed and 0% means none of the planthoppers have been killed.

Tetranychus urticae = Tetranychus urticae spray test, OP-resistant; format: in vivo; settings: foliar, 144 h, application rate 100 g/ha, French bean leaf disks, after 6 days
Procedure: Tetranychus urticae—Spray Test OP-Resistant Solvent: 78.0 parts by weight acetone • 1.5 parts by weight dimethylformamide Emulsifier: alkylarylpolyglycol ether
as §1
French bean (Phaseolus vulgaris) leaf disks infected with all instars of the two spotted spidermite (Tetranychus urticae), are sprayed with a preparation of the active ingredient of the desired concentration.
After 6 days mortality in % is determined. 100% means all spider mites have been killed and 0% means none of the spider mites have been killed.

Work on C[C@H](NC(=O)c1ccnc(C(F)(F)F)n1)c1ncnn1-c1ccc(C#N)cn1 [II-8] yielded a mortality at 500 g/ha (Nilaparvata lugens) of 100%.

C[C@H](NC(=O)c1cc(Cl)cc(C(F)F)c1)c1ncnn1-c1ccc(C#N)cn1 [II-12] showed a mortality at 100 g/ha (Tetranychus urticae) of 90%.

In the case of C[C@H](NC(=O)c1cc(C(F)(F)F)cc(C(F)(F)F)c1)c1ncnn1-c1ccc(C(=O)N(C)C2CC2)cn1 [II-38, 6-(5-{(1S)-1-[3,5-bis(trifluoromethyl)benzamido]ethyl}-1H-1,2,4-triazol-1-yl)-N-cyclopropyl-N-methylnicotinamide], the mortality at 100 g/ha (Tetranychus urticae) is reported as 90%.

Work on C[C@H](NC(=O)c1cc(Cl)cc(C(F)(F)F)c1)c1ncnn1-c1cc(-n2cncn2)ccn1 [II-43] yielded a mortality at 500 g/ha (Nilaparvata lugens) of 90%.

C[C@H](NC(=O)c1cc(C(F)(F)F)cc(C(F)(F)F)c1)c1ncnn1-c1ccc(C(=O)N(C)CC2CC2)cn1 [II-73] showed a mortality at 500 g/ha (Nilaparvata lugens) of 100%.

Cc1nc([C@H](C)NC(=O)c2cc(C(F)(F)F)cc(C(F)(F)F)c2)n(-c2ccc(C(=O)N(C)C3CC3)cn2)n1 [II-96] showed a mortality at 100 g/ha (Nilaparvata lugens) of 90%.

Cc1nc([C@H](C)NC(=O)c2cc(C(F)(F)F)cc(C(F)(F)F)c2)n(-c2ccc(C(=O)N(C)CC#N)cn2)n1 [II-99] was tested, and the mortality at 100 g/ha (Nilaparvata lugens) was 90% and the mortality at 100 g/ha (Tetranychus urticae) was 90%.
